Marks after values point to notes of the source that are not given here.
Key:
Assay type in all cases: in vivo
[1] = tested on: DSS-induced colitis in the mouse; assay: 10-day DSS-induced colitis, Disease Activity Index (Example 6); parameters: key: clinical Disease Activity Index (stool, bleeding, weight loss)
Experimental: (§1) Daily clinical assessment of DSS-treated animals was carried out, with the calculation of a validated clinical Disease Activity Index (DAI) ranging from 0 to 4 according to the following parameters: stool consistency, presence or absence of rectal bleeding and weight loss:
(§2) Example 6 was carried out essentially as described in Example 5. The differences are indicated below.
(§3) Animals were divided into 9 experimental groups.
The animals in group F received one dose i.v. and another dose s.c. (12 hours after the i.v. dose) of the corresponding test item for 10 consecutive days.
The animals in group G received one dose every two days of the corresponding test item for 10 consecutive days.
Methylprednisolone was given orally at a dose of 1 mg/kg (group H) and 10 mg/kg (group J) in a dosing volume of 5 ml/kg body weight, once daily for 10 consecutive days.

[2] = tested on: DSS-induced colitis in the mouse; assay: 10-day DSS-induced colitis, colon histological score (Example 6)
Experimental: (§4) Two sections (proximal and distal) of colon were taken from each animal and preserved in neutral buffered formalin for subsequent histological analysis (haematoxylin and eosin staining) according to the following scoring system:
as §2, §3
Two sections (proximal and distal) of colon were taken from each animal, processed for histological analysis (haematoxylin and eosin staining), and scored by a blind observer according to the scoring system described above.

[3] = tested on: DSS-induced colitis in the mouse; assay: 10-day DSS-induced colitis, Disease Activity Index (Example 5); conditions: 1 mg/kg p.o. daily
Experimental: (§5) Animals were divided into 5 experimental groups.
Colitis was induced in mice by supplementing their drinking water with DSS 2% for 7 days.
as §1
Bodyweight loss was calculated as the percent difference between the original bodyweight (Day 1) and the actual bodyweight on each experimental day (2-10).
The appearance of diarrhoea is defined as mucus/faecal material adherent to anal fur. Rectal bleeding is defined as diarrhoea containing visible blood/mucus or gross rectal bleeding. The maximum score of the DAI each day is 12.

[4] = tested on: DSS-induced colitis in the mouse; assay: 10-day DSS-induced colitis, colon histological score (Example 5); conditions: 1 mg/kg p.o. daily, day 10
Source text: as §5
Their colons were removed and their length and weight measured after exclusion of the caecum.
as §4
Two sections (proximal and distal) of colon were taken from each animal, processed for histological analysis (haematoxylin and eosin staining) and scored by a blind observer according to the histological scoring system described above.

SMILES: C[C@H]1C[C@@H]2[C@H]([C@@H](O)C[C@@]3(C)[C@H]2CC[C@]3(O)C(=O)COC(=O)CCC(=O)O)[C@@]2(C)C=CC(=O)C=C12 [Methylprednisolone 21-hemisuccinate, reference compound]
- DAI score, mean ([1]; Group H, 1 mg/kg p.o., Day 1): 0.00
- DAI score, mean ([1]; Group H, 1 mg/kg p.o., Day 2): 0.50
- DAI score, mean ([1]; Group H, 1 mg/kg p.o., Day 3): 0.50
- DAI score, mean ([1]; Group H, 1 mg/kg p.o., Day 4): 0.40
- DAI score, mean ([1]; Group H, 1 mg/kg p.o., Day 5): 1.10
- DAI score, mean ([1]; Group H, 1 mg/kg p.o., Day 6): 3.80
- DAI score, mean ([1]; Group H, 1 mg/kg p.o., Day 7): 5.90
- DAI score, mean ([1]; Group H, 1 mg/kg p.o., Day 8): 6.40
- DAI score, mean ([1]; Group H, 1 mg/kg p.o., Day 9): 5.60*
- DAI score, mean ([1]; Group H, 1 mg/kg p.o., Day 10): 5.60*
- DAI score, mean ([1]; Group J, 10 mg/kg p.o., Day 1): 0.00
- DAI score, mean ([1]; Group J, 10 mg/kg p.o., Day 2): 0.30
- DAI score, mean ([1]; Group J, 10 mg/kg p.o., Day 3): 0.70
- DAI score, mean ([1]; Group J, 10 mg/kg p.o., Day 4): 0.80
- DAI score, mean ([1]; Group J, 10 mg/kg p.o., Day 5): 1.30
- DAI score, mean ([1]; Group J, 10 mg/kg p.o., Day 6): 2.00
- DAI score, mean ([1]; Group J, 10 mg/kg p.o., Day 7): 3.20**
- DAI score, mean ([1]; Group J, 10 mg/kg p.o., Day 8): 4.80**
- DAI score, mean ([1]; Group J, 10 mg/kg p.o., Day 9): 5.20*
- DAI score, mean ([1]; Group J, 10 mg/kg p.o., Day 10): 4.00***
- Histology Score Distal Colon, mean ([2]; Group H, 1 mg/kg p.o.): 3.00***
- Histology Score Proximal Colon, mean ([2]; Group H, 1 mg/kg p.o.): 1.40
- Histology Score Distal Colon, mean ([2]; Group J, 10 mg/kg p.o.): 2.70***
- Histology Score Proximal Colon, mean ([2]; Group J, 10 mg/kg p.o.): 1.40
- DAI score ([3]; Day 1): 0.00
- DAI score ([3]; Day 2): 0.10
- DAI score ([3]; Day 3): 0.00
- DAI score ([3]; Day 4): 2.60
- DAI score ([3]; Day 5): 2.50
- DAI score ([3]; Day 6): 2.60
- DAI score ([3]; Day 7): 3.10
- DAI score ([3]; Day 8): 2.50*
- DAI score ([3]; Day 9): 3.80*
- DAI score ([3]; Day 10): 4.90**
- Histology Score Distal Colon [4]: 3.70
- Histology Score Proximal Colon [4]: 2.80*
- Histology Score Proximal Colon ([4]; listed as prednisolone): 2.8±0.5

Reference: patent US20100016232A1, “Treatment Of Inflammatory Diseases With Mammal Beta Defensins” (Novozymes A/S, priority 2008, published 2010)
